In ChEMBL document CHEMBL3297705, “Discovery of 5,6,7,8-tetrahydropyrido[3,4-d]pyrimidine inhibitors of Erk2” (Bioorg Med Chem Lett, 2014):

Key:
[1] = biological target: T1, Mitogen-activated protein kinase 1 (Homo sapiens, UniProt P28482)
Description: Inhibition of ERK2 in human HepG2 cells assessed as P90RSK phosphorylation at Ser380 after 1.5 hrs by fluorescence assay

[2] = biological target: T1, Mitogen-activated protein kinase 1; remark: listed apart in the source
Description: Inhibition of human recombinant N-terminal 6-His-tagged ERK2 expressed in Escherichia coli using S/T17 as substrate after 30 mins by spectrophotometry

[3] = Plasma protein binding in human; format: ADME, cell-free; conditions: read-out: PPB (converted)
[4] = biological target: Cyclin-dependent kinase 2 (Homo sapiens, UniProt P24941)
Description: Inhibition of Cdk2 (unknown origin)

T1 sequence (P28482 whole entry): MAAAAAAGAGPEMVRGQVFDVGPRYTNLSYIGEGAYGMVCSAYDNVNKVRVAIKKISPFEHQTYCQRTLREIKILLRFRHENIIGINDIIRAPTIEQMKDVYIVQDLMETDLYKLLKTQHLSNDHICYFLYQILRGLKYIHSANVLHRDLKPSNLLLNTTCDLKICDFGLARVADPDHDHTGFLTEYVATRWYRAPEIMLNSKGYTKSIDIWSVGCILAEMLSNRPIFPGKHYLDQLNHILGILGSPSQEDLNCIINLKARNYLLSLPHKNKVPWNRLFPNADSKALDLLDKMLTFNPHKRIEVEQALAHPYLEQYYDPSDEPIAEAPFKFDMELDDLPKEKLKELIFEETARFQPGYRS

SMILES | IC50 [1] [nM] | IC50 [2] [nM] | fraction unbound [3] | IC50 [4] [nM]
CC(C)Nc1ncc2c(n1)CN(C(=O)NCc1ccc(Cl)cc1)CC2 | 2140 | 91 |  | 
CC(C)Nc1ncc2c(n1)CN(C(=O)NCc1cccc(F)c1)CC2 | 2610 | 93 |  | 
CC(C)Nc1ncc2c(n1)CN(C(=O)NCc1ccccc1)CC2 | 4380 | 283 |  | 
O=C(N[C@H](CO)c1ccc(F)c(Cl)c1)N1CCc2cnc(NCCO)nc2C1 | 2450 | 9 |  | 
CC(=O)Nc1ncc2c(n1)CN(C(=O)N[C@H](CO)c1ccc(F)c(Cl)c1)CC2 | 7440 | 93 |  | 
CNc1ncc2c(n1)CN(C(=O)N[C@H](CO)c1ccc(F)c(Cl)c1)CC2 | 2260 | 43 |  | 
C[C@@H](CO)Nc1ncc2c(n1)CN(C(=O)N[C@H](CO)c1ccc(F)c(Cl)c1)CC2 | 473 | 3 |  | 
Cc1noc(C)c1Nc1ncc2c(n1)CN(C(=O)N[C@H](CO)c1ccc(F)c(Cl)c1)CC2 | 13200 |  |  | 
CC(C)Nc1ncc2c(n1)CN(C(=O)N[C@H](CNCCO)c1ccc(F)c(Cl)c1)CC2 | 2760 | 8 |  | 

Now those with a lower IC50 [1], led by results:

IC50 [1] [nM] | IC50 [2] [nM] | fraction unbound [3] | IC50 [4] [nM] | SMILES
200 | 6 |  |  | CC(C)Nc1ncc2c(n1)CN(C(=O)N[C@@H](c1ccc(F)c(Cl)c1)[C@H](C)O)CC2
17 | 1 | 0.103 | 11 | O=C(N[C@H](CO)c1ccc(Cl)c(Cl)c1)N1CCc2cnc(NC3CCOCC3)nc2C1
23 | 2 | 0.025 | 12 | CC[C@@H](NC(=O)N1CCc2cnc(N[C@@H](C)CO)nc2C1)c1ccc(Cl)c(Cl)c1
35 | 1 | 0.018 | 4 | C[C@@H](NC(=O)N1CCc2cnc(Nc3cnn(C)c3)nc2C1)c1ccc(Cl)c(Cl)c1
247 | 6 |  |  | Cn1cc(Nc2ncc3c(n2)CN(C(=O)N[C@H](CO)c2ccc(F)c(Cl)c2)CC3)cn1
108 | 2 |  |  | CC[C@H](O)[C@@H](NC(=O)N1CCc2cnc(NC(C)C)nc2C1)c1ccc(F)c(Cl)c1
23 | 1 | 0.006 | 9 | Cc1cc(Nc2ncc3c(n2)CN(C(=O)N[C@H](C)c2ccc(Cl)c(Cl)c2)CC3)ccn1
4 | 1 |  | 2 | CC[C@@H](NC(=O)N1CCc2cnc(NC3CCOCC3)nc2C1)c1ccc(C#N)c(Cl)c1
21 | 1 | 0.03 | 104 | C[C@@H](CO)Nc1ncc2c(n1)CN(C(=O)N[C@H](C)c1ccc(Cl)c(Cl)c1)CC2
160 | 4 |  |  | CC(C)Nc1ncc2c(n1)CN(C(=O)N[C@H](CO)c1ccc(F)c(Cl)c1)CC2
368 | 11 |  |  | COC[C@@H](NC(=O)N1CCc2cnc(NC(C)C)nc2C1)c1ccc(F)c(Cl)c1
12 | 1 | 0.095 | 13 | C[C@@H](NC(=O)N1CCc2cnc(NC3CCOCC3)nc2C1)c1ccc(Cl)c(F)c1
51 | 3 | 0.226 | 13 | CC[C@@H](NC(=O)N1CCc2cnc(N[C@@H](C)CO)nc2C1)c1ccc(F)c(F)c1
